Experimental data reported in patent US8664382B2, “Antibacterial compositions comprising metal phthalocyanine analogues” (Molteni Therapeutics S.r.l., priority 2002, dated 2014).

Key:
[1] = test system: E. coli ATCC 25922; assay: Photoinactivation (biocidal activity) of E. coli cell suspension after red light irradiation; type: cell-based; conditions: for concentration able to sterilize completely the cell suspension: in combination with EDTA 0.5 mM, 100 mW/cm2 red light (FIG. 2, FIG. 5)
Protocol: These microorganisms were used in the experiments in a stationary phase of growth.
(§1) The experimental protocol was the following:
(§2) The cell suspensions were diluted in an appropriate medium. Addition of an aliquot of stock solution of the composition to be tested to the cell suspension up to the intended final concentrations. Incubation in dark at 37° C. for 5 minutes. Irradiation (650≦λ≦850 nm; 50÷100 mW/cm2; 1÷10 minutes) of cell suspension for each dilution of the photosensitising composition.

[2] = test system: Pseudomonas aeruginosa PAO-1; assay: Photoinactivation (biocidal activity) of Pseudomonas aeruginosa cell suspension after red light irradiation; type: cell-based
Protocol: The usefulness of the pharmaceutical compositions of the present invention has been evaluated through their activity against the Gram negative micro-organisms Pseudomonas aeruginosa PAO-1 and E. coli ATCC 25922. These microorganisms were used in the experiments in a stationary phase of growth.
as §1, §2

Substance	concentration able to sterilize completely the cell suspension ([1]; 5 min incubation)	photosensitizer concentration necessary to sterilize the cell suspension ([1]; without EDTA, 5 min incubation, 100 mW/cm2 red light (FIG. 5a))	reduction of the initial population ([1]; compound alone, no chelating agent, 5 min incubation, irradiation 100 mW/cm2 red light (FIG. 1))	complete sterilization of the cell suspension ([1]; compound alone, no chelating agent, irradiation 100 mW/cm2 red light (FIG. 1))	concentration up to which not active (photoinactivation) ([2]; compound alone, no chelating agent, 100 mW/cm2 red light (FIG. 3))	reduction of the population ([2]; with EDTA 0.5 mM, 1 μM concentration, 100 mW/cm2 red light (FIG. 3a))	concentration able to sterilize the cell suspension ([2]; with EDTA 0.5 mM, 100 mW/cm2 red light (FIG. 3a))
{2(3),9(10),16(17),23(24)-tetra[1,3-bis-(trimethylammonium)propyl-2-oxy]zinc(II) phthalocyanine}octaiodide [compound 2]	1 µM	20 µM	–	–	–	–	–
{2,3,9,10,16,17,23,24-octa[3-(N,N,N-trimethylammonium)phenoxy]zinc(II) phthalocyanine}octaiodide [compound 1]	1 µM	–	4 log	cannot be obtained	> 40 µM	5 log	5 µM
